US20180071313A1, “DRY EYE THERAPEUTIC AGENT […] ESTER THEREOF OR M[…] ESTER THEREOF AS AN ACTIVE INGREDIENT” (SANTEN PHARMACEUTICAL CO., LTD., priority 2015, published 2018)

Columns and labels:
[1] = system: lipophilin CL2 (L-CL2) gene; test: Pharmacological Study (2): expression level of lipophilin CL2 (L-CL2) gene in lacrimal gland cells, quantitative PCR; format: cell-based, rabbits (Japanese White, females); settings: isolated rabbit lacrimal gland cells, drug culture for 2 days, 0.1% DMSO; FIG. 3
Protocol: A comparative study of the action of increasing the expression level of lipophilin CL2 (L-CL2) gene by both nandrolone decanoate and methenolone acetate was conducted by allowing both drugs to act on lacrimal gland tissue cells. Furthermore, lipophilins are proteins that are synthesized in the lacrimal gland and are observed to be present in large amounts in the tears of humans and rabbits.
Each drug was dissolved in DMSO followed by diluting with DMEM/F-12 (D/F medium) to a final DMSO concentration of 0.1%. […]
Quantitative PCR was carried out by using primers designed by respectively joining to cDNA synthesized from the drug-treated lacrimal gland cells using the CellAmp Direct RNA Prep Kit and PrimeScript RT MasterMix (both manufactured by Takara Bio, Inc.), the QuantiFast SYBR Green PCR Kit (Qiagen Corp.), Rabbit L-CL2 gene (Accession No.: NM_001082095) and Rabbit GAPDH gene (Accession No.: NM_001082253). The expression level of L-CL2 gene of each of the drug-treated cells was corrected with expression of each GAPDH gene and expressed as the relative ratio to the expression level of cells treated with base (D/F medium containing 0.1% DMSO).

TL in tears = test: Pharmacological Study (1): amount of TL in tears after administration to eyelid skin; format: in vivo, Rabbits (Japanese White, females); settings: cream 1% (w/v), eyelid skin of one eye, once per day 40 μL, two weeks after application vs before; rabbits with lower lacrimal gland and nictitating membrane excised, ketoconazole; mean ± standard error, n=4
Protocol: A study was conducted in rabbits as to whether or not the administration of nandrolone decanoate and methenolone acetate to eyelid skin increases the amount of TL in tears.
A cream containing 1% (w/v) of nandrolone decanoate, a cream containing 1% (w/v) of methenolone acetate and a base were prepared in the manner of the compositions indicated in Table 1.
Rabbits (Japanese White, females, purchased from Kitayama Labes Co., Ltd.) were used in the study. […]
Schirmer test paper (Showa Yakuhin Kako Co., Ltd.) was inserted into the conjunctival sac of the lower eyelid before application and two weeks after application to collect tears, followed by subjecting each of the collected tear specimens to slab gel electrophoresis. Following electrophoresis, the gel was stained with Coomassie Brilliant Blue stain, all protein bands, including the TL band at a molecular weight of about 17 kilodaltons, were detected, and the percentage of TL (% TL) in the total amount of protein present in the tears was calculated by image analysis of the resulting gel. The difference between the % TL before application and the % TL after application was determined for each individual and expressed as an increase in % TL (A % TL).

[2] = Pharmacokinetics Study (2): nandrolone concentration in the lacrimal glands after nandrolone decanoate to eyelid skin or instillation; format: in vivo, Rabbits (Japanese White, males); settings: 2, 4, 8, 24 hours, LC-MS/MS, FIG. 2
Protocol: A study was conducted for change over time of nandrolone concentration in the lacrimal glands after administration of nandrolone decanoate to eyelid skin, or instillation thereof.
0.4 g of nandrolone decanoate were added to castor oil followed by bringing to a volume of 20 mL and dissolving therein to prepare an ointment containing 2% (w/v) of nandrolone decanoate. In addition, a preparation of the same composition was used as an ophthalmic solution containing nandrolone decanoate.
Rabbits (Japanese White, males, purchased from Kitayama Labes Co., Ltd.) were used in the study. Fur of the right upper eyelid was shaved by using an electric hair clipper under general anesthesia on the day before drug administration followed by fitting the rabbits with Elizabethan collars prior to administration. […]
The rabbits were euthanized at 2, 4, 8 and 24 hours after administration and the right upper lacrimal gland tissue was excised (from 3 animals at each time). The lacrimal gland tissue was homogenized in methanol and the concentration of nandrolone (active form of nandrolone decanoate) in the centrifuged supernatant was measured by LC-MS/MS. The concentration of nandrolone in the lacrimal gland tissue was calculated from the wet weight of the tissue measured prior to homogenization and the concentration of nandrolone in the measured specimen.

SMILES: CCCCCCCCCC(=O)O[C@H]1CC[C@H]2[C@@H]3CCC4=CC(=O)CC[C@@H]4[C@H]3CC[C@]12C [Nandrolone decanoate, 17β-decanoyloxy-19-nor-4-androsten-3-one]
- expression of L-CL2 gene (corrected with GAPDH, relative ratio to base-treated cells) [1]: increases expression of L-CL2 gene in lacrimal gland cells
- Δ % TL (increase in percentage of TL in total tear protein) (TL in tears): 4.30 ± 0.473%
- concentration of nandrolone in the lacrimal gland over time ([2]; single 50 μL ointment 2% (w/v) nandrolone decanoate to right upper eyelid skin): somewhat lower than the concentration of methenolone in lacrimal gland tissue after administration of methenolone acetate to eyelid skin
- concentration of nandrolone in the lacrimal gland over time ([2]; single 50 μL ophthalmic solution 2% (w/v) nandrolone decanoate by instillation into right eye): much lower than in the case of administration to eyelid skin
